Source: patent publication US20110269812A1, “NOVEL BENZYLIDENE-INDOLINONE AND THEIR MEDICAL AND DIAGNOSTIC USES” (Agency for Science, Technology and Research, priority 2008, published 2011)

Key:
[1] = system: phospho-Erk, phospho-Akt, PCNA, cyclin D1, cleaved PARP, Bax, Bcl-xL; test: Immunoblot of signalling, cell cycling and apoptosis markers in HuH7 or HepG2; type: cell-based, human; details: HuH7 or HepG2, 0, 1, 5 or 10 μM, 24 h
Protocol: HuH7 or HepG2 cells were treated with increasing concentration of Compound 47 (0, 1, 5 or 10 μM) for 24 h. Cell lysates were harvested and immunoblotted against cleaved PARP, phospho-Erk, phospho-Akt, PCNA, cyclin D1, Bax and Bcl-xL, with HSP60 as loading control.
Protein concentrations were assayed by BCA method (Pierce, Rockford, Ill.). Samples were resolved using 6-10% SDS-PAGE and transferred to nitrocellulose or PVDF membranes by tank transfer. Immunodetection was by chemiluminescence (SuperSignal, Pierce) using specific antibodies diluted in PBS with 0.05% (v/v) Tween 20 and 5% (w/v) powdered milk or BSA. Anti-phospho-IGF-1R, anti-phospho-EphA2, anti-phospho-Erk, anti-phospho-Akt, anti-Bax, anti-BCL-xL were from Cell Signaling Technology (Beverly, Mass.); anti-PCNA and anti-HSP60 from Santa Cruz Biotechnology (Santa Cruz, Calif.); anti-cyclin-D1 from BD Pharmingen (San Jose, Calif.). Secondary antibodies were anti-mouse and anti-rabbit HRP-conjugated antibodies (Pierce).
Next, the mechanism of Compound 47's anti-proliferative effects was investigated. […] However, there was little effect on the mitochondrial apoptotic players Bax and BCL-xL.

[2] = target: T1, Her3 (Homo sapiens, UniProt P21860); test: Human phospho-RTK array, HuH7: Her3; type: cell-based; details: 24 h, untreated 0.05
T1 construct: endogenous in cells; host or cells: HuH7
T1 sequence (P21860 20-1342): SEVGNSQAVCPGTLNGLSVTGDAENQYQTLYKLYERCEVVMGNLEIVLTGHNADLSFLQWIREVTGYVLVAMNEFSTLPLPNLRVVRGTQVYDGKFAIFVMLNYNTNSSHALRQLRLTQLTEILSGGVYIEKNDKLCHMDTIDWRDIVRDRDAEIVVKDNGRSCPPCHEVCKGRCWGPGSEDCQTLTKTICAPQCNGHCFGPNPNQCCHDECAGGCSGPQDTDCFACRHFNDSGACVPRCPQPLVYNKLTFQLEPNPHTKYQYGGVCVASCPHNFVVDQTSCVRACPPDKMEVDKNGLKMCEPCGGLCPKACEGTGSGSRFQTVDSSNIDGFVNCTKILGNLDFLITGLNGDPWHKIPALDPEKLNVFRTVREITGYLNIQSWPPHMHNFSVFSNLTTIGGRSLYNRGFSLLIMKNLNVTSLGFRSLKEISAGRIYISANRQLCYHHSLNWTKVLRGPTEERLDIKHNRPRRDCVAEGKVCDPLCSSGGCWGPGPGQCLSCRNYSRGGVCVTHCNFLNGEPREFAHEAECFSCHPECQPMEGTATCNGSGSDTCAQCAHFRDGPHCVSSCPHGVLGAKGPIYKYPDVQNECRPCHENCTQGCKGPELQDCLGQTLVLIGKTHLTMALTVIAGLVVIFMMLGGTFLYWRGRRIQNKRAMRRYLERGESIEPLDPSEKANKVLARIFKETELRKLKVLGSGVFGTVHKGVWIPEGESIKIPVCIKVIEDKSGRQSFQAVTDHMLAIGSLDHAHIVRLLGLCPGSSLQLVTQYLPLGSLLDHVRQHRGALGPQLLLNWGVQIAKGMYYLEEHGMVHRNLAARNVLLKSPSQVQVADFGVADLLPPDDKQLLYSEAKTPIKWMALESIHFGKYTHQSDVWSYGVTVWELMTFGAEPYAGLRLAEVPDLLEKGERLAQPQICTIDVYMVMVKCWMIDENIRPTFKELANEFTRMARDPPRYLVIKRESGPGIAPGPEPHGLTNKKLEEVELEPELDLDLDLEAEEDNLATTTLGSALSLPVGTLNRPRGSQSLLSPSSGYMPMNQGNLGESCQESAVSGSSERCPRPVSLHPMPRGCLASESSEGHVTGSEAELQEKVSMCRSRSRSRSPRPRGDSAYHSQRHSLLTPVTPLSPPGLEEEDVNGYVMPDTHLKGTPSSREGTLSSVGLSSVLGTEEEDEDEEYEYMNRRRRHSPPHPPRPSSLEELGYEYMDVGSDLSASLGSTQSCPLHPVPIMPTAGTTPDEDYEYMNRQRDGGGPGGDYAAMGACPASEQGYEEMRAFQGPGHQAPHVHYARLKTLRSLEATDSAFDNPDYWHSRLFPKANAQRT
Protocol: (§1) Kinase phosphorylation changes were determined with human phospho-RTK array.
(§2) Cells harvesting, hybridization with RTK array and incubation with anti-phosphotyrosine were performed according to manufacturer's instruction. Imaging and quantification of the spots intensities was with Fujifilm LAS-3000 (Tokyo, Japan). Average signal of the duplicate spots for each RTK was determined.

[3] = target: T2, IGF-1R (Homo sapiens, UniProt P08069); test: Immunoblot of phospho-IGF-1R in HuH7; type: cell-based; details: HuH7, 24 h; Compound 47 1, 5 or 10 μM, sunitinib 10 μM
T2 construct: we examined the constitutively phosphorylated IGF-1R, EphA2 and Tyro3; endogenous in cells; host or cells: HuH7
T2 sequence (P08069 31-1367): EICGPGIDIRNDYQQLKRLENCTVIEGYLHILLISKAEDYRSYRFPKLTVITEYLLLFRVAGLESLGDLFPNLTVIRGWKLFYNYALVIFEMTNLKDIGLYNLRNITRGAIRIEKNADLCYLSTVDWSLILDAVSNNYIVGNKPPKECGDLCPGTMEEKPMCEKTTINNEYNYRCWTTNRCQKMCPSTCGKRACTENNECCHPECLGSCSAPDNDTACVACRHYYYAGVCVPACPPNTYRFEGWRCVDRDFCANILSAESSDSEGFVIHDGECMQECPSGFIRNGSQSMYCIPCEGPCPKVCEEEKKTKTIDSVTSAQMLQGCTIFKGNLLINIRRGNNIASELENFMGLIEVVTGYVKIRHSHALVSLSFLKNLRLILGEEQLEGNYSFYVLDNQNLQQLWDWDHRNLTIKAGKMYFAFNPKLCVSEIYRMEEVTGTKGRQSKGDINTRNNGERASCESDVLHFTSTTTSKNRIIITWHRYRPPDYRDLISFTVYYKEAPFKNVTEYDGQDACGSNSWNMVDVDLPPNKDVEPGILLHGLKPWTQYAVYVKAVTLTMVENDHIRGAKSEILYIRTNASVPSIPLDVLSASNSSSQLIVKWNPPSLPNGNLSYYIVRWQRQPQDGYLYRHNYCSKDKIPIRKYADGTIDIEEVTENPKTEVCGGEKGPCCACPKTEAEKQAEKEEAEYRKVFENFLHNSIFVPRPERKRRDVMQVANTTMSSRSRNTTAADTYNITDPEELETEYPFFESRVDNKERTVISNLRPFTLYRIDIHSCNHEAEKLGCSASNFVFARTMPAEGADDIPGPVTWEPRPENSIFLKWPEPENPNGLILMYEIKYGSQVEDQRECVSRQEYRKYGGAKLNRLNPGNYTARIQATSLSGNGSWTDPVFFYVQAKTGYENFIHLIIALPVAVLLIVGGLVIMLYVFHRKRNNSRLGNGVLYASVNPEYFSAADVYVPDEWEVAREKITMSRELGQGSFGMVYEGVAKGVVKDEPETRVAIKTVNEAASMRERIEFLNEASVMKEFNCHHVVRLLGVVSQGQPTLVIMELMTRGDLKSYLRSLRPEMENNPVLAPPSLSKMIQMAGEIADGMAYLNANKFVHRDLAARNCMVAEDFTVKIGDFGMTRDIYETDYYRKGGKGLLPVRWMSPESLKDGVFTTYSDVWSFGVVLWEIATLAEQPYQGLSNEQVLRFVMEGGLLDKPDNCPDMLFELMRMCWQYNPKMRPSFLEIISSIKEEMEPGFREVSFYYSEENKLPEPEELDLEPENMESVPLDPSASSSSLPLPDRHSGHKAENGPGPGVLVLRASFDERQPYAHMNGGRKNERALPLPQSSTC

[4] = target: T3, EphA2 (Homo sapiens, UniProt P29317); test: Immunoprecipitation / anti-phosphotyrosine blot of EphA2 in HuH7; type: cell-based; details: HuH7, 24 h; Compound 47 1, 5 or 10 μM, sunitinib 10 μM
T3 construct: we examined the constitutively phosphorylated IGF-1R, EphA2 and Tyro3; endogenous in cells; host or cells: HuH7
T3 sequence (P29317 24-976): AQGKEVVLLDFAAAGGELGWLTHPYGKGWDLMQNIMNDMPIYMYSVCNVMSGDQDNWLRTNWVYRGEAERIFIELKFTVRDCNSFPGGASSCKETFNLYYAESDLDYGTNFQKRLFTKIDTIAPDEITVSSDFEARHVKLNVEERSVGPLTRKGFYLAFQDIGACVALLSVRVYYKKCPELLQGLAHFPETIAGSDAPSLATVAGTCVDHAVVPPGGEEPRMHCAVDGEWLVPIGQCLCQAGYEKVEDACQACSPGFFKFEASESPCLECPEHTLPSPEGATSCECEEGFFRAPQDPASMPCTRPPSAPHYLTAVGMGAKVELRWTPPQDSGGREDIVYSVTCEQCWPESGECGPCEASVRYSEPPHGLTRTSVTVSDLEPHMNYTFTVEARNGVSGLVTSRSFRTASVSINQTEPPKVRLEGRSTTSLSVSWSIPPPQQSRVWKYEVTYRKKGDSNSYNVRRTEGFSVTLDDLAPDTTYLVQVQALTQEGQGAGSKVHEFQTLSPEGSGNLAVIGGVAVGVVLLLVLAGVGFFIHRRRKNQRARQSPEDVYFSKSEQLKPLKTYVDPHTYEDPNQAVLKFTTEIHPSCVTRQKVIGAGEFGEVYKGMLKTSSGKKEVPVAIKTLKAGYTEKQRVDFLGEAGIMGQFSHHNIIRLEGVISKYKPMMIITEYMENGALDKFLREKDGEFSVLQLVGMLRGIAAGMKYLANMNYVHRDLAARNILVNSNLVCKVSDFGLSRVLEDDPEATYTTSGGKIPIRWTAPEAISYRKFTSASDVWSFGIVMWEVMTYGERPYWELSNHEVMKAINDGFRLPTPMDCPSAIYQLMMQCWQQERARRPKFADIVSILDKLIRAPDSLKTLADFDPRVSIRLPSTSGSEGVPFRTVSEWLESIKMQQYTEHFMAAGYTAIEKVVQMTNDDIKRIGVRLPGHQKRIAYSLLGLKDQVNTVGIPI

[5] = target: T4, Tyro3 (Homo sapiens, UniProt Q06418); test: Immunoprecipitation / anti-phosphotyrosine blot of Tyro3 in HuH7; type: cell-based; details: HuH7, 24 h; Compound 47 1, 5 or 10 μM, sunitinib 10 μM
T4 construct: we examined the constitutively phosphorylated IGF-1R, EphA2 and Tyro3; endogenous in cells; host or cells: HuH7
T4 sequence (Q06418 41-890): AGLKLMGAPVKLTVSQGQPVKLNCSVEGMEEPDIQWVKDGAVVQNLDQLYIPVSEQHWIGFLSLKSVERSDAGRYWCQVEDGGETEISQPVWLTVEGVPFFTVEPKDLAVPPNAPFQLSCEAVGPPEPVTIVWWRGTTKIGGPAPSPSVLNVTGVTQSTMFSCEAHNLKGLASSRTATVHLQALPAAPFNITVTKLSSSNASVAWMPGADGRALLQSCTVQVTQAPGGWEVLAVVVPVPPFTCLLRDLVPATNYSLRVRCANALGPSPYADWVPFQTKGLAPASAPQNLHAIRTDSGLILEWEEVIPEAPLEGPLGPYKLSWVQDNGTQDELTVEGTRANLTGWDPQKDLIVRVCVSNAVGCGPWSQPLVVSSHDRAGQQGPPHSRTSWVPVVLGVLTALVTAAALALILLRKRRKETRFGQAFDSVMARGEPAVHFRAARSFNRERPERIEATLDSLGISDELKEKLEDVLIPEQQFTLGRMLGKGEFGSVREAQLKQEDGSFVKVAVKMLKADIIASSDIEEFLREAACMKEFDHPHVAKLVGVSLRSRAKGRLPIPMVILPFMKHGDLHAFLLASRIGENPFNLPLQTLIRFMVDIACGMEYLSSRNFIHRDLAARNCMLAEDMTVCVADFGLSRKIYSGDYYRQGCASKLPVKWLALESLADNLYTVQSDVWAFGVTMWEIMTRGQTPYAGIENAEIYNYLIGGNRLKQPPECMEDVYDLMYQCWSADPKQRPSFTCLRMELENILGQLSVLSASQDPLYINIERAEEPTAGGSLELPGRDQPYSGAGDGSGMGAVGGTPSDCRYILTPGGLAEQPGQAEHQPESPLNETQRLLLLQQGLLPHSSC

[6] = target: T5, EGFR (Homo sapiens, UniProt P00533); type: cell-based
T5 construct: Cells treated similarly were immunoprecipitated with anti-EGFR, anti-EphA2 and anti-Tyro3; endogenous in cells; host or cells: HuH7

[7] = target: T6, Ron (Homo sapiens, UniProt Q04912); test: Human phospho-RTK array, HuH7: Ron; type: cell-based; details: 24 h, untreated 0.04
T6 construct: endogenous in cells; host or cells: HuH7
T6 sequence (Q04912 25-1400): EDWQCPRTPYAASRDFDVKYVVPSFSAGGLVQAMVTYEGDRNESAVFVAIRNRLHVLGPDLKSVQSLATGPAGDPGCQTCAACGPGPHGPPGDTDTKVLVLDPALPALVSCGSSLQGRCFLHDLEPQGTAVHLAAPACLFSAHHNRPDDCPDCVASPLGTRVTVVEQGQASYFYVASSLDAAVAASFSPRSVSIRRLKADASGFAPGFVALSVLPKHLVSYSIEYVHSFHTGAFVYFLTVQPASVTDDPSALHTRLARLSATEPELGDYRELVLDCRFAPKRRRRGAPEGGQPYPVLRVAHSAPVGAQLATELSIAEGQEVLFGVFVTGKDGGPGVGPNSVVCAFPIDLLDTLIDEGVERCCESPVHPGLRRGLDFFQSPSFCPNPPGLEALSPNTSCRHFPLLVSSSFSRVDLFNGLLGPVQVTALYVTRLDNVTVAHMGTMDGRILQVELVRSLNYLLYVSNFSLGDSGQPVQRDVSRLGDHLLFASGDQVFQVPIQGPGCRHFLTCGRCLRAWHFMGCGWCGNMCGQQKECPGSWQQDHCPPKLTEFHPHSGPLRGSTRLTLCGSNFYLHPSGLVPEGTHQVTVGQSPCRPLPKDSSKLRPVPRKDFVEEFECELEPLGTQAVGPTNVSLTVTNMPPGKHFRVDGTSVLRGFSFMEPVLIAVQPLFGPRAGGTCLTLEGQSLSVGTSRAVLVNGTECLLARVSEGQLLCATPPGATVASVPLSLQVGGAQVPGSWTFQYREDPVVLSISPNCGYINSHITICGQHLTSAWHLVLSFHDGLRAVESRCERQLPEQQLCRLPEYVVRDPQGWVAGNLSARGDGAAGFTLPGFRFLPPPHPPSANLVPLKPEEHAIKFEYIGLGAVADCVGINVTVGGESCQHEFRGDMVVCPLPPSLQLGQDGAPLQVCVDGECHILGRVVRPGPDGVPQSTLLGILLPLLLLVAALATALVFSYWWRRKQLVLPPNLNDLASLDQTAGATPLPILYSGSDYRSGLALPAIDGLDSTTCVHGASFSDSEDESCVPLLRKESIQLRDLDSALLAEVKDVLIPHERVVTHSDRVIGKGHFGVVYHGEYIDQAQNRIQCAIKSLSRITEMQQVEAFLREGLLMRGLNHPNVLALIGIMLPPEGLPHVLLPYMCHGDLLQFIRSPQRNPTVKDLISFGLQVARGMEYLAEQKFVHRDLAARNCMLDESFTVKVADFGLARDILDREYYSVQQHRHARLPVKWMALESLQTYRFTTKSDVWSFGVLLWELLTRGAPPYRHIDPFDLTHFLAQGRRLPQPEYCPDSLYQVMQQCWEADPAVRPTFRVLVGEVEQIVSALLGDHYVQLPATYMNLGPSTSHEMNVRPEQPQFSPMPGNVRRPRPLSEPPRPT
Protocol: as §1, §2

Compound: O=C1Nc2cc(Cl)ccc2/C1=C\c1cccc(C(F)(F)F)c1 [Compound 47, (E)-6-Chloro-3-(3-(trifluoromethyl)benzylidene)indolin-2-one]
- Bax and BCL-xL (mitochondrial apoptotic players) [1]: little effect
- Erk and Akt phosphorylation [1]: dose-dependent inhibition
- cleaved PARP (apoptotic marker) [1]: confirmed the participation of pro-apoptotic mechanism
- cyclin-D1 and PCNA expression (cell cycling markers) [1]: corresponding reduction
- Her3 Phosphorylation ([2]; serum starved HuH7, 1 μM): 0.07 Arbitrary units
- Her3 Phosphorylation ([2]; serum starved HuH7, 5 μM): 0.04 Arbitrary units
- Her3 Phosphorylation ([2]; serum starved HuH7, 10 μM): 0.03 Arbitrary units
- IGF-1R phosphorylation (Y980 and Y1135/1136) by immunoblot [3]: proportional reduction
- EphA2 phosphorylation by immunoblot [4]: proportional reduction
- Tyro3 phosphorylation by immunoblot [5]: inhibited even at the lowest concentration used (1 μM)
- EGFR phosphorylation by immunoblot [6]: unexpected increase
- Ron Phosphorylation ([7]; serum starved HuH7, 1 μM): 0.06 Arbitrary units
- Ron Phosphorylation ([7]; serum starved HuH7, 5 μM): 0.05 Arbitrary units
- Ron Phosphorylation ([7]; serum starved HuH7, 10 μM): 0.03 Arbitrary units
